Data on eight compounds can be found in US12467085B2, “High accuracy nanopore-based single molecule sequencing by synthesis with tagged nucleotides” (priority 2019, dated 2025).

Phi29-type DNA polymerase, sequence (P03680 whole entry): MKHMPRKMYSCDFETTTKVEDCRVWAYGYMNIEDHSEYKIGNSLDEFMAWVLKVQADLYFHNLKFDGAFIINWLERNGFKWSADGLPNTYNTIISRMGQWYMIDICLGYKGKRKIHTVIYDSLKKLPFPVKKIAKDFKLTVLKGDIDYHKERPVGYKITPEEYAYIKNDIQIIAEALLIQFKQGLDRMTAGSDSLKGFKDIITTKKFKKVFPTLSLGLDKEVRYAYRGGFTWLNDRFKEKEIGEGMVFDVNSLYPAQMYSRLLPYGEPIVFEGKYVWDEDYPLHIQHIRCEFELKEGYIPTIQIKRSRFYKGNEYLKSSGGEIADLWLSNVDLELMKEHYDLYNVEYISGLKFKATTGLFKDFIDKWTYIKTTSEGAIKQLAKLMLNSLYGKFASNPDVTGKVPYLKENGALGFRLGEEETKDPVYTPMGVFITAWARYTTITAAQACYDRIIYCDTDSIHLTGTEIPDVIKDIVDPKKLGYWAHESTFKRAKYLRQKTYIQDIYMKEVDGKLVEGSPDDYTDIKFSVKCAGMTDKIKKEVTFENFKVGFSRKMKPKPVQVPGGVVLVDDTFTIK

One experiment addresses Phi29-type DNA polymerase (Bacillus phage phi29, UniProt P03680). Description: Dissociation constants of nucleotides with polymerase by fluorescence assays. Type of experiment: binding. Conditions: fluorescence assays; natural and unincorporable nucleotides. The source says:
Disclosed herein is a determination of a number of enzymatic parameters including substrate binding and dissociation constants (examples in Table 1) under a variety of conditions and with a variety of nucleotide analogs (NTPs, N6Ps, tagged N6Ps, α-thio and α,β-methylene nucleotide polyphosphates). In addition to these compounds, disclosed herein are fluorescent nucleotide analogs and unincorporable (α-thio) nucleotides that were designed and synthesized for the polymerase tests to develop new Nanopore-SBS approaches as described below.
Regarding `Nc1ccn(C2CC(O)C(COP(O)(=S)OP(=O)(O)OP(=O)(O)O)O2)c(=O)n1` (stereo not drawn) [2′-dCTP-αS (Rp-isomer), 2′-dCTP-αS], the affinity, expressed as Kd, was 750 nM. Still for that read-out and setting: the value for `Nc1ccn(C2CC(O)C(COP(O)(=S)OP(=O)(O)OP(=O)(O)O)O2)c(=O)n1` (stereo not drawn) [2′-dCTP-αS (Sp-isomer), 2′-dCTP-αS] was 1 nM. Still for that read-out and setting: the value for `Nc1nc2c(ncn2C2CC(O)C(COP(O)(=S)OP(=O)(O)OP(=O)(O)O)O2)c(=O)[nH]1` (stereo not drawn) [2′-dGTP-αS (Rp-isomer), 2′-dGTP-αS] was 910 nM; that for `Nc1nc2c(ncn2C2CC(O)C(COP(O)(=S)OP(=O)(O)OP(=O)(O)O)O2)c(=O)[nH]1` (stereo not drawn) [2′-dGTP-αS (Sp-isomer), 2′-dGTP-αS] was 6 nM.

As for `Nc1ccn(C2CC(O)C(COP(=O)(O)OP(=O)(O)OP(=O)(O)O)O2)c(=O)n1` (stereo not drawn) [dCTP, reference compound], the Kd was ~5 nM. Still for that read-out and setting: the value for `Nc1ccn(C2CC(O)C(COP(=O)(O)CP(=O)(O)OP(=O)(O)O)O2)c(=O)n1` (stereo not drawn) [dCp-CH2-pp, reference compound] was 25000 nM; that for `Nc1nc2c(ncn2C2CC(O)C(COP(=O)(O)OP(=O)(O)OP(=O)(O)O)O2)c(=O)[nH]1` (stereo not drawn) [dGTP, reference compound] was 6 nM.

The experiment is the same for the next values; noted with them: fluorescence assays; natural and unincorporable nucleotides; read-out: KD.
As to αS-dG6P-N3 [αS-dG6P-N3 (Rp-isomer)], the Kd worked out at 670 nM.

Staying with this experiment, now noted: in words; compared with the other nucleotides.
On to `Nc1ccn(C2CC(O)C(COP(=O)(O)CP(=O)(O)OP(=O)(O)O)O2)c(=O)n1` (stereo not drawn) [dCp-CH2-pp, reference compound], for which the “binding to the polymerase in the ternary complex” value was “do not bind as tightly”.

As a reminder, the Kd is a measure of binding affinity in units of concentration.
